The record followed here is patent publication US6703373B1, “Indolopyrrolocarbazole derivatives and antitumor agents” (Banyu Pharmaceutical Co., Ltd., priority 2002, dated 2004).

A value given as a limit tells only on which side of the number the result lay.

In experiment [1] the test system is human gastric cancer cells (MKN-45). As to the kind of experiment: Growth inhibition activity on human gastric cancer cells (MKN-45). The format is cell-based. Conditions: MKN-45 cells, 72 h with compound, Sulforhodamine B, absorbance 560 nm; read-out: 50% inhibition concentration (IC50, nM) MKN-45. As for the experimental part:
(§1) Growth Inhibition Activity on Human Gastric Cancer Cells, Human Colon Cancer Cells and Human Lung Cancer Cells
(§2) 100 μl of a medium containing a test compound was added, and culture was continued at 37° C. for further 72 hours under 5% CO2. After completion of the culture, 50 μl of 50% trichloroacetic acid was added to the cultured medium, and the mixtures were held at 4° C. for 60 minutes to fix the cells. The cultured medium containing trichloroacetic acid was removed, and the wells were washed with tap water and dried. 50 μl of 0.4% Sulforhodamine B solution was added, and the mixtures were held at room temperature for 30 minutes to dye the cells. The dyeing solutions were removed, and the remaining dyeing solutions were washed away with 1% acetic acid. After complete removal of the acetic acid solution and drying, 200 μl of […] Tris solution was added and the mixtures were mixed well at room temperature for 1 hour or more to extract the dye. Absorbance of each well at 560 nm was measured, and the inhibition proportion in comparison with the group of no addition of any drug was calculated.

Experiment [2] deals with human lung cancer cells (PC-13). The experiment is described as follows: Growth inhibition activity on human lung cancer cells (PC-13). The format is cell-based. Conditions: PC-13 cells, 72 h with compound, Sulforhodamine B, absorbance 560 nm; read-out: 50% inhibition concentration (IC50, nM) PC-13. As for the experimental part: as §1, §2
The subject of experiment [3] is human colon cancer cells (DLD-1). As to the kind of experiment: Growth inhibition activity on human colon cancer cells (DLD-1). The format is cell-based. As to conditions: DLD-1 cells, 72 h with compound, Sulforhodamine B, absorbance 560 nm; read-out: 50% inhibition concentration (IC50, nM) DLD-1. Here is the method: as §1, §2
Experiment [4] has as its system mouse leukemia cells (P388). The experiment is described as follows: Growth inhibition activity on mouse leukemia cells (P388). The format is cell-based. Conditions: 24 h with compound, Thiazoyl Blue, absorbance 550 nm, read-out: 50% inhibition concentration (IC50, nM) P-388. As for the experimental part:
Growth Inhibition Activity on Mouse Leukemia Cells
10 μl of a medium containing a test compound was added, and culture was continued at 37° C. for further 24 hours under 5% CO2. 10 μl of 0.5% Thiazoyl Blue was added to the cultured medium, and incubation was made at 37° C. for 2 hours under 5% CO2 to carry out enzymatic reaction. 20% sodium dodecyl sulfate (SDS) was added to discontinue the reaction, and incubation was carried out at 37° C. for further 4 hours to dissolve the resulting dye, and absorbance at 550 nm was measured and compared with the control group.

The subject of the next experiment is Human breast cancer MX-1. The experiment is described as follows: Antitumor effect on human breast cancer (MX-1) solid tumor implanted in mice. The format is in vivo, mouse. Conditions: total dose to inhibit tumor growth by 75%; s.c. implanted tumor in mice, tail vein injection, 5/w×2 or 2/w×2, measured 28 after start. Here is the method: (§3) Antitumor Effect on Human Gastric Cancer (MKN-45), Human Breast Cancer (MX-1) and Human Colon Cancer (LS180)
(§4) A MKN-45, MX-1 or LS180 solid tumor previously subcutaneously implanted in a nude mouse and grown was thinly cut, and its cubes with each side 3 mm were subcutaneously implanted in test mice. After the implantation, starting from the time when the tumor grew into 0.3 cm^3 or more, various dosages of a test compound were injected once a day for 5 consecutive days into the tail veins of the mice. The same injections were then made for further 5 days after 2 days of interval (treatment schedule: 5/w×2) or once every 3-4 days, four times in total (treatment schedule: 2/w×2). 28 after the start of the treatment, the length (L) and the breadth (W) of each of the tumors were measured, and its volume (V) was calculated (V=½×L×W^2).

A further experiment concerns Human colon cancer LS180. As to the kind of experiment: Antitumor effect on human colon cancer (LS180) solid tumor implanted in mice. The format is in vivo, mouse. Conditions: total dose to inhibit tumor growth by 75%; s.c. implanted tumor in mice, tail vein injection, 5/w×2 or 2/w×2, measured 28 after start. As for the experimental part:
as §3, §4

Experiment [5] relates to Human gastric cancer MKN-45. As to the kind of experiment: Antitumor effect on human gastric cancer (MKN-45) solid tumor implanted in mice. As to conditions: total dose to inhibit tumor growth by 75%; s.c. implanted tumor in mice, tail vein injection, 5/w×2 or 2/w×2, measured 28 after start. The format is in vivo, mouse. As for the experimental part: as §3, §4

As for `O=C1c2c(c3c4ccc(O)cc4n([C@@H]4O[C@H](CO)[C@@H](O)[C@H](O)[C@H]4O)c3c3[nH]c4cc(O)ccc4c23)C(=O)N1NCc1sccc1CO` [Example 19], the IC50 in experiment [1] was determined as 0.92 nM; in experiment [2], 0.5 nM; in experiment [3], 1.3 nM; in experiment [4], 0.19 nM. In addition, the “GID75 (mg/m^2 total) Human breast cancer MX-1” value in the experiment with Human breast cancer MX-1 is on record as <30 mg/m^2.

Take `O=C1c2c(c3c4ccc(O)cc4n([C@@H]4O[C@H](CO)[C@@H](O)[C@H](O)[C@H]4O)c3c3[nH]c4cc(O)ccc4c23)C(=O)N1NCc1sc(CO)cc1CO` [Example 16]: the IC50 in experiment [1] is 1.3 nM; in experiment [2], 0.56 nM; in experiment [3] it was 4 nM; in experiment [4], 0.4 nM. The “GID75 (mg/m^2 total) Human breast cancer MX-1” value in the experiment with Human breast cancer MX-1 was <36 mg/m^2.

As for `O=C1c2c(c3c4ccc(O)cc4n([C@@H]4O[C@H](CO)[C@@H](O)[C@H](O)[C@H]4O)c3c3[nH]c4cc(O)ccc4c23)C(=O)N1NCc1cccc(CO)n1` [Example 15], the “GID75 (mg/m^2 total) Human colic cancer LS180” value with Human colon cancer LS180 is recorded as 400 mg/m^2. Also, the IC50 in experiment [1] amounted to 2.1 nM; in experiment [2] it was 0.62 nM; in experiment [3], 4.3 nM; in experiment [4], 0.5 nM. The “GID75 (mg/m^2 total) Human gastric cancer MKN-45” value in experiment [5] is <90 mg/m^2. Further, the “GID75 (mg/m^2 total) Human breast cancer MX-1” value in the experiment on Human breast cancer MX-1 is given as <6 mg/m^2.

`O=C1c2c(c3c4ccc(O)cc4n(C4OC(CO)C(O)C(O)C4O)c3c3[nH]c4cc(O)ccc4c23)C(=O)N1NCc1cccc(O)c1` (stereo not drawn) [Control compound, reference compound]: the “GID75 (mg/m^2 total) Human colic cancer LS180” value in the experiment with Human colon cancer LS180 is given as 1900 mg/m^2. Besides, the “GID75 (mg/m^2 total) Human gastric cancer MKN-45” value in experiment [5] amounted to 370 mg/m^2. For the same molecule, in the experiment with Human breast cancer MX-1, the “GID75 (mg/m^2 total) Human breast cancer MX-1” value is recorded as 97 mg/m^2.

As for `O=C1c2c(c3c4ccc(O)cc4n([C@@H]4O[C@H](CO)[C@@H](O)[C@H](O)[C@H]4O)c3c3[nH]c4cc(O)ccc4c23)C(=O)N1NCc1csc(CO)c1` [Example 23], the IC50 in experiment [1] turned out to be 1.5 nM; in experiment [2], 2.3 nM; in experiment [3], 8.9 nM; in experiment [4], 0.48 nM. Also, in the experiment on Human breast cancer MX-1, the “GID75 (mg/m^2 total) Human breast cancer MX-1” value was 19 mg/m^2.

Take `O=C1c2c(c3c4cccc(O)c4n(C4OC(CO)C(O)C(O)C4O)c3c3[nH]c4c(O)cccc4c23)C(=O)N1NCc1cccc(O)c1` (stereo not drawn) [Control compound 2, reference compound]: the IC50 in experiment [1] was found to be 12 nM; in experiment [2], 48 nM; in experiment [3], 76 nM; in experiment [4], 6.5 nM.

For the molecule `O=C1c2c(c3c4ccc(O)cc4n([C@@H]4O[C@H](CO)[C@@H](O)[C@H](O)[C@H]4O)c3c3[nH]c4cc(O)ccc4c23)C(=O)N1NCc1ccc(CO)o1` [Example 22], the IC50 in experiment [1] came to 1.8 nM; in experiment [2] it was 0.58 nM; in experiment [3], 1 nM; in experiment [4], 0.63 nM.

On to `O=C1c2c(c3c4ccc(O)cc4n([C@@H]4O[C@H](CO)[C@@H](O)[C@H](O)[C@H]4O)c3c3[nH]c4cc(O)ccc4c23)C(=O)N1NCc1ccncc1` [Example 24], for which the “GID75 (mg/m^2 total) Human colic cancer LS180” value in the experiment on Human colon cancer LS180 is reported as 114 mg/m^2. Also, the IC50 in experiment [1] came to 0.71 nM; in experiment [2], 0.27 nM; in experiment [3] it was 3.3 nM; in experiment [4] it was 0.48 nM. Further, in experiment [5], the “GID75 (mg/m^2 total) Human gastric cancer MKN-45” value worked out at 12 mg/m^2. In the experiment with Human breast cancer MX-1, the “GID75 (mg/m^2 total) Human breast cancer MX-1” value is listed as 27 mg/m^2.

Take `O=C1c2c(c3c4ccc(O)cc4n([C@@H]4O[C@H](CO)[C@@H](O)[C@H](O)[C@H]4O)c3c3[nH]c4cc(O)ccc4c23)C(=O)N1NCc1cscc1CO` [Example 20]: the IC50 was determined as 0.92 nM in experiment [1], 0.67 nM in experiment [2], 1 nM in experiment [3] and 0.87 nM in experiment [4]. In the experiment with Human breast cancer MX-1, the “GID75 (mg/m^2 total) Human breast cancer MX-1” value is on record as <30 mg/m^2.

With `O=C1c2c(c3c4ccc(O)cc4n([C@@H]4O[C@H](CO)[C@@H](O)[C@H](O)[C@H]4O)c3c3[nH]c4cc(O)ccc4c23)C(=O)N1NCc1ccsc1CO` [Example 18], the IC50 in experiment [1] came to 0.66 nM; in experiment [2] it was 0.3 nM; in experiment [3], 4.6 nM; in experiment [4], 0.43 nM. Also, in the experiment on Human breast cancer MX-1, the “GID75 (mg/m^2 total) Human breast cancer MX-1” value came to 16 mg/m^2.

As for `O=C1c2c(c3c4ccc(O)cc4n([C@@H]4O[C@H](CO)[C@@H](O)[C@H](O)[C@H]4O)c3c3[nH]c4cc(O)ccc4c23)C(=O)N1NCc1ccncc1CO` [Example 3], the “GID75 (mg/m^2 total) Human colic cancer LS180” value in the experiment on Human colon cancer LS180 came to 48 mg/m^2. The IC50 in experiment [1] came out at 0.35 nM; in experiment [2], 0.22 nM; in experiment [3] it was 0.91 nM; in experiment [4], 0.28 nM. In experiment [5], the “GID75 (mg/m^2 total) Human gastric cancer MKN-45” value is <30 mg/m^2. Besides, the “GID75 (mg/m^2 total) Human breast cancer MX-1” value with Human breast cancer MX-1 is listed as <12 mg/m^2.
